pKi: −log10 of the molar value.
Tests used:
[1] = Ratio of free drug level from brain to plasma concentration in rat at 0.05 mg/kg, iv after 5 mins; type: ADME, organism-based; set-up: dose 0.05 mg/kg, route intravenous; details: read-out: BPR
[2] = Plasma concentration in rat at 0.05 mg/kg, iv after 3 mins; type: ADME, organism-based; set-up: dose 0.05 mg/kg, route intravenous
[3] = Plasma concentration in rat at 0.05 mg/kg, iv after 5 mins; type: ADME, organism-based; set-up: dose 0.05 mg/kg, route intravenous
[4] = Ratio of free drug level from brain to plasma concentration in rat at 0.05 mg/kg, iv after 3 mins; type: ADME, organism-based; set-up: dose 0.05 mg/kg, route intravenous; details: read-out: BPR
[5] = biological target: 5-hydroxytryptamine receptor 2A (Homo sapiens, UniProt P28223); assay: Displacement of [125I]-R-O-DOI from human 5-HT2A receptor expressed in CHO-K1 cells by liquid scintillation spectrometry; type: cell-based
Chain of 5-hydroxytryptamine receptor 2A (P28223 whole entry): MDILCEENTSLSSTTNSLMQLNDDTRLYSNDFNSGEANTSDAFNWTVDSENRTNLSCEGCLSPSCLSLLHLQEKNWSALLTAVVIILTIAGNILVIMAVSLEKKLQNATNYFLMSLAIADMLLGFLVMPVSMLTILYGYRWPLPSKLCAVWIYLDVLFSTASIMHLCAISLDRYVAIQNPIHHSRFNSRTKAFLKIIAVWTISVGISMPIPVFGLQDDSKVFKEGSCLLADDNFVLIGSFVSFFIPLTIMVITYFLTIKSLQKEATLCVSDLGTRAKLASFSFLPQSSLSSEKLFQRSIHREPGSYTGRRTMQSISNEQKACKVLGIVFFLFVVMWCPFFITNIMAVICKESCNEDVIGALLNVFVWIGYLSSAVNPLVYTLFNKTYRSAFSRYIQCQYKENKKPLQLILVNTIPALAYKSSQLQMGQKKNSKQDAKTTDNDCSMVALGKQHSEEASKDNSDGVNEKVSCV

[6] = system: Nucleic Acid; assay: Ratio of drug level from hippocampus to cerebellum in rat at 0.05 mg/kg, iv after 40 mins; type: ADME, organism-based; set-up: dose 0.05 mg/kg, route intravenous; details: in vivo
[7] = system: Nucleic Acid; assay: Ratio of drug level from cortex to cerebellum in rat at 0.05 mg/kg, iv after 40 mins; type: ADME, organism-based; set-up: dose 0.05 mg/kg, route intravenous; details: in vivo
[8] = system: Nucleic Acid; assay: Ratio of drug level from hippocampus to cerebellum in rat at 0.05 mg/kg, iv after 5 mins; type: ADME, organism-based; set-up: dose 0.05 mg/kg, route intravenous; details: in vivo
[9] = system: Nucleic Acid; assay: Ratio of drug level from striatum to cerebellum in rat brain at 0.05 mg/kg, iv after 5 mins; type: ADME, organism-based; set-up: dose 0.05 mg/kg, route intravenous; details: in vivo
[10] = system: Nucleic Acid; assay: Ratio of drug level from striatum to cerebellum in rat brain at 0.05 mg/kg, iv after 40 mins; type: ADME, organism-based; set-up: dose 0.05 mg/kg, route intravenous; details: in vivo
[11] = system: Nucleic Acid; assay: Ratio of drug level from cortex to cerebellum in rat at 0.05 mg/kg, iv after 5 mins; type: ADME, organism-based; set-up: dose 0.05 mg/kg, route intravenous; details: in vivo

CN1CCC(c2cccc3cc(S(=O)(=O)c4ccccn4)cnc23)CC1
Kp uu at 5 min [1]: 0.28
concentration at 0.05 h [2]: 104 ng/mL
concentration at 5 min [3]: 83.5 ng/mL
Kp uu at 0.05 h [4]: 0.21

CN1CCN(c2cccc3cc(S(=O)(=O)c4cccc(F)c4)cnc23)CC1
pKi [5]: 9.41

[3H]C([3H])([3H])N1CCC(c2cccc3cc(S(=O)(=O)c4ccccn4)cnc23)CC1
Ratio [6]: 1.07
Ratio [7]: 1.2
Ratio [8]: 1.06
Ratio [9]: 0.81
Ratio [10]: 1.31
Ratio [11]: 0.9

Reference: ChEMBL document CHEMBL3259709, “Quinoline Derivatives as 5-HT6 Receptor PET Ligands” (ACS Med Chem Lett, 2014)
